± gives the standard deviation of the averaged measurements.
How the values were obtained:
Test in all cases: pIC50, kinobeads binding competition
Conditions in all cases: cell material: Jurkat lysate
[1] = biological target: BRAF (UniProt P15056)
[2] = biological target: UniProt P49841
[3] = biological target: ARAF (UniProt P10398)
[4] = biological target: UniProt P17252
[5] = biological target: UniProt Q9P289
[6] = biological target: CAMKK2 (UniProt Q96RR4)
[7] = biological target: STK39 (UniProt Q9UEW8)
[8] = biological target: CLK1 (UniProt P49759)
[9] = biological target: T1, UniProt Q13043
T1 sequence (whole entry): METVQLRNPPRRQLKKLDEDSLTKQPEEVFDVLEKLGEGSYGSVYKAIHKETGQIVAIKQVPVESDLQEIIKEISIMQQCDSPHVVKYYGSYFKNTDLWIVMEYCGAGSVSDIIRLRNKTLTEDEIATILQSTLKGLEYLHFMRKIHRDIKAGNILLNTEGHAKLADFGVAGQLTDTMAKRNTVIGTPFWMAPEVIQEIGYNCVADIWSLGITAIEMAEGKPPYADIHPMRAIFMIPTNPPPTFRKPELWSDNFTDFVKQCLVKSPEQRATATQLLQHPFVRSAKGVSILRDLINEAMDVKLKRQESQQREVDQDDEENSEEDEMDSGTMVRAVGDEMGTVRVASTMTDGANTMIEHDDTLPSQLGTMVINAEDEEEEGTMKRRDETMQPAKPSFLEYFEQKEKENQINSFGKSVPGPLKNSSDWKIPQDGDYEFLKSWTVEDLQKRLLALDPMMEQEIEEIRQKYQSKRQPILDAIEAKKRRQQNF

[10] = biological target: T2, MERTK (UniProt Q12866)
T2 sequence (whole entry): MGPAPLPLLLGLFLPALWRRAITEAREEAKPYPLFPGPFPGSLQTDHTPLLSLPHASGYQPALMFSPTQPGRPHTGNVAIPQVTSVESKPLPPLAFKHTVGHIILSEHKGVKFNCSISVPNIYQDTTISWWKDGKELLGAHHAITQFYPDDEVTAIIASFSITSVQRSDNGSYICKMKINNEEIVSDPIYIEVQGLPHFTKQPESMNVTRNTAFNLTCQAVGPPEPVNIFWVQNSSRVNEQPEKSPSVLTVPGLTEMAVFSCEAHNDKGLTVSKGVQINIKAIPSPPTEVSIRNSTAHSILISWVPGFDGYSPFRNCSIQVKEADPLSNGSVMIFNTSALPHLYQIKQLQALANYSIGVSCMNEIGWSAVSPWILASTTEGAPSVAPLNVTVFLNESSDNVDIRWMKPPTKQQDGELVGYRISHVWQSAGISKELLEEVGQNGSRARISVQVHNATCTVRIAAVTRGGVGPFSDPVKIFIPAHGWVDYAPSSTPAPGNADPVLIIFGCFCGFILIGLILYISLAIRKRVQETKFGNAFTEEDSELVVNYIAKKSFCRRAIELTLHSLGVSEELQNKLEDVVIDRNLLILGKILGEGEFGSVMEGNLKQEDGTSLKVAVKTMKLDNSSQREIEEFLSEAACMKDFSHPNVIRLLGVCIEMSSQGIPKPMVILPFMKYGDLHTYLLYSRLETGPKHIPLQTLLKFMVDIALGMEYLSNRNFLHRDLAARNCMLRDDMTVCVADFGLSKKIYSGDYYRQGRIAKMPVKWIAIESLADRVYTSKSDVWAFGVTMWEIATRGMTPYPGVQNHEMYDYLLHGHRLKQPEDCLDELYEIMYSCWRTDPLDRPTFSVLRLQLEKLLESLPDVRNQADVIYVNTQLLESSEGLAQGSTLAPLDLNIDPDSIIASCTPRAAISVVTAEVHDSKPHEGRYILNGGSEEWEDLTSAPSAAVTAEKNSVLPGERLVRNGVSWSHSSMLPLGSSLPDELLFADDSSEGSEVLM

[11] = biological target: UniProt O75460
[12] = biological target: T3, BMPR2 (UniProt Q13873)
T3 sequence (whole entry): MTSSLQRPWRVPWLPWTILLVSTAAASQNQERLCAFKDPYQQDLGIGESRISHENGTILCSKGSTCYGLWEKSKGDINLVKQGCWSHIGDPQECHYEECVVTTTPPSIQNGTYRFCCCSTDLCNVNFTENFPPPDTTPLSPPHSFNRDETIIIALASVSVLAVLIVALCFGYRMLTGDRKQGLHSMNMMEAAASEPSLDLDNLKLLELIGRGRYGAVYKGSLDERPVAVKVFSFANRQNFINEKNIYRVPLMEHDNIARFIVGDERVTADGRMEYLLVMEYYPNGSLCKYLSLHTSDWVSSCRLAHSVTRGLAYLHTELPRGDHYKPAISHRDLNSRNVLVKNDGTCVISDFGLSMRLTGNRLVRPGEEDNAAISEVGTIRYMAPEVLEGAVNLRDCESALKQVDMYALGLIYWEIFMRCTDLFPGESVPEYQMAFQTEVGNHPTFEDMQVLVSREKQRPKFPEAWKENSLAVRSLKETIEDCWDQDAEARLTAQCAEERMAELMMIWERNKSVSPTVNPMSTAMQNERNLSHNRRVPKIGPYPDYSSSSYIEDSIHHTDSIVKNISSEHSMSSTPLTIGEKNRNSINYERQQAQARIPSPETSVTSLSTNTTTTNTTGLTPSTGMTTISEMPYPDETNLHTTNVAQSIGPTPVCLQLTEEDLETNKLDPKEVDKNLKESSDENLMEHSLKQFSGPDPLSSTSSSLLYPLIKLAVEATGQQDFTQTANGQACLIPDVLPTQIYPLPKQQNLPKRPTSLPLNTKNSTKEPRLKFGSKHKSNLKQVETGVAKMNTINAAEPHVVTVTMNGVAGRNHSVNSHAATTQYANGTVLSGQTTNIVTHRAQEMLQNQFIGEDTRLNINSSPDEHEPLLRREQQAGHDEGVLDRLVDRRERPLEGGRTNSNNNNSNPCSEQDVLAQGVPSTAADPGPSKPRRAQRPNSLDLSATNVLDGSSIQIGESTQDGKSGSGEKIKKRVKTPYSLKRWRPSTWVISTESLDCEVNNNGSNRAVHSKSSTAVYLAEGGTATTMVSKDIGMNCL

[13] = biological target: UniProt Q16659
UniProt Q16659, sequence (Q16659 whole entry): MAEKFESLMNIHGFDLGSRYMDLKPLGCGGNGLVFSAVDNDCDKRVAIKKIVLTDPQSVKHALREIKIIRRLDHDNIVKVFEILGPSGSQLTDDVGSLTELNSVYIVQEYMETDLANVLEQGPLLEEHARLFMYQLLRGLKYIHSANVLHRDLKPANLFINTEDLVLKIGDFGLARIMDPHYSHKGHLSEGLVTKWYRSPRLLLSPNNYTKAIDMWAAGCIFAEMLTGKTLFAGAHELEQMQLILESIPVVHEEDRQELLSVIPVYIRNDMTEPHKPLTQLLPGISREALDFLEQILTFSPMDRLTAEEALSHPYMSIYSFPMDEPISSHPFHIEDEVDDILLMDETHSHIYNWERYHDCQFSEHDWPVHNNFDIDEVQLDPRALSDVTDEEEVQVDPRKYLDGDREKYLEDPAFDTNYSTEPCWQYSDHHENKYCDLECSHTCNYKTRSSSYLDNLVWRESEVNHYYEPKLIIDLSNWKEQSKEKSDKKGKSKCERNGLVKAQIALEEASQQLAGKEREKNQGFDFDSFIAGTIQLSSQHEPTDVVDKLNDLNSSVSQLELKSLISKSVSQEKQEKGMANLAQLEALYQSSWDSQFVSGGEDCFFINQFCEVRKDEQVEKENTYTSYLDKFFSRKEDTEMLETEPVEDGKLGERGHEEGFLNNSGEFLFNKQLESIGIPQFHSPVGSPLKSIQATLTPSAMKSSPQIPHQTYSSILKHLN

CAMKK2, sequence (Q96RR4 whole entry, looked up): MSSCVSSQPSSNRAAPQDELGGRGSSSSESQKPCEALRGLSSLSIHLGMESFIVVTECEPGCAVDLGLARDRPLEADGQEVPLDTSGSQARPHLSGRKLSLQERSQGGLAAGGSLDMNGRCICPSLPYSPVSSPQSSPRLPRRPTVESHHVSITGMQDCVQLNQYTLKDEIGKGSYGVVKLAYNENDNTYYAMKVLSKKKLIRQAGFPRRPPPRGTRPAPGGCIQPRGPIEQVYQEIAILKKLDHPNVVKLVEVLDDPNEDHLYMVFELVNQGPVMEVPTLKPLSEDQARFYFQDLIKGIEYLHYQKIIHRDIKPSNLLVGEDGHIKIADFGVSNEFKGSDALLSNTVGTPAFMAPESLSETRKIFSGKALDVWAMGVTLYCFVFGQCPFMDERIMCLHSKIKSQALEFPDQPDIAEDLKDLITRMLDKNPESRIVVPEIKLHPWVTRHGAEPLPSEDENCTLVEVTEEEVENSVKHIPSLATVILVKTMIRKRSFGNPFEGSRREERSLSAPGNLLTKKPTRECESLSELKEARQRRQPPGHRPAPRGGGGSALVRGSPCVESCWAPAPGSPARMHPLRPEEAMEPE
UniProt P49841, sequence (P49841 whole entry, looked up): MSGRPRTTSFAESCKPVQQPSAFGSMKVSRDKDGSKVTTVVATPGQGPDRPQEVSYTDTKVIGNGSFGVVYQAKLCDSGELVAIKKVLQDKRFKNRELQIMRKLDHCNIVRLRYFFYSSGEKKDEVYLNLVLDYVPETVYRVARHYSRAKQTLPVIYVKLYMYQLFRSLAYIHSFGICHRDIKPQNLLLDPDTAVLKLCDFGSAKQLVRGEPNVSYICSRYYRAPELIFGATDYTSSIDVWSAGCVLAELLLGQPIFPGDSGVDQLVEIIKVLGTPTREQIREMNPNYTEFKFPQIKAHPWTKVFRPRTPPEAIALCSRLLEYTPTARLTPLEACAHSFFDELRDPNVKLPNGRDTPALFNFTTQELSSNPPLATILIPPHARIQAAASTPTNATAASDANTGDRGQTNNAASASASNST
ARAF, sequence (P10398 whole entry): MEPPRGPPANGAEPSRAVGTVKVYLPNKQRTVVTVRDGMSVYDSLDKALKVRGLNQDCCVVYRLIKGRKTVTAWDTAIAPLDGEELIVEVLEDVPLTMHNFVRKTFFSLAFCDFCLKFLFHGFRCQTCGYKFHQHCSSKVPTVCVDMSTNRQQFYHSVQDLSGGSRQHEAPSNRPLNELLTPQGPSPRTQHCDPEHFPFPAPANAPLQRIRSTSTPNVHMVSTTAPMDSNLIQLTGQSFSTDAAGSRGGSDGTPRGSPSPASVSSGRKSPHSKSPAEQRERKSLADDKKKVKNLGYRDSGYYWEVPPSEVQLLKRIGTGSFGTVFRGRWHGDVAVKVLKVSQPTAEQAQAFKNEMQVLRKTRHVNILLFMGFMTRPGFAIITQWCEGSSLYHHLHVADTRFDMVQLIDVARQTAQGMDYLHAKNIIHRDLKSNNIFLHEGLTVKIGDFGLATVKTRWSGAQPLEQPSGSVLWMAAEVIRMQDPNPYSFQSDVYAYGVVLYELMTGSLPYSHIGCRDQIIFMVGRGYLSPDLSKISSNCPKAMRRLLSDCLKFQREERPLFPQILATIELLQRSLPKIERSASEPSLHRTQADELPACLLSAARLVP
UniProt O75460, sequence (O75460 whole entry, looked up): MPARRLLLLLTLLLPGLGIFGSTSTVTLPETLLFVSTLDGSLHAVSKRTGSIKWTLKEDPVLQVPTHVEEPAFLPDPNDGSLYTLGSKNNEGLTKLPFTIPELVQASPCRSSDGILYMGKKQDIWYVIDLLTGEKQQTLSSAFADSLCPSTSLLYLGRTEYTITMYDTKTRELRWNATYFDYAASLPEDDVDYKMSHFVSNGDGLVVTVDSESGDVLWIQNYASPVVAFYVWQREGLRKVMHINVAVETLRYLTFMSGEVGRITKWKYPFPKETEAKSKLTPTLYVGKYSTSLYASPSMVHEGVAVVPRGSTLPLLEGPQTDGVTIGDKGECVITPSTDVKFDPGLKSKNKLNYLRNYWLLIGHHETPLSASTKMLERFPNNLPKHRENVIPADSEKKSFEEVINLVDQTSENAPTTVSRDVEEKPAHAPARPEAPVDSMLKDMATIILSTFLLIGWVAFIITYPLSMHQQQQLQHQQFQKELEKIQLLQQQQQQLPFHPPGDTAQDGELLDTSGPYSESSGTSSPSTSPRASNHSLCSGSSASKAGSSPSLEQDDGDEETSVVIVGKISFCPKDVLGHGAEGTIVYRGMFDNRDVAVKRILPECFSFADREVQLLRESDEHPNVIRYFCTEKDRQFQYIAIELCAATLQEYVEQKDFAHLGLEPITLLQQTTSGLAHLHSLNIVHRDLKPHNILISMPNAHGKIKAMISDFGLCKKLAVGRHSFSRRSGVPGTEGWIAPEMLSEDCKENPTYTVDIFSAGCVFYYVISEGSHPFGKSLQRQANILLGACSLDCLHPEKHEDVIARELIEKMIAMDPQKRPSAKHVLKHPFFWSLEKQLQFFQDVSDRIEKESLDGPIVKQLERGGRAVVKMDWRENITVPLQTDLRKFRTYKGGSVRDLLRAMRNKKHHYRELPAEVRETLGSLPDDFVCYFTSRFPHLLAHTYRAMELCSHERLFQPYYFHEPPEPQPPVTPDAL
CLK1, sequence (P49759 whole entry, looked up): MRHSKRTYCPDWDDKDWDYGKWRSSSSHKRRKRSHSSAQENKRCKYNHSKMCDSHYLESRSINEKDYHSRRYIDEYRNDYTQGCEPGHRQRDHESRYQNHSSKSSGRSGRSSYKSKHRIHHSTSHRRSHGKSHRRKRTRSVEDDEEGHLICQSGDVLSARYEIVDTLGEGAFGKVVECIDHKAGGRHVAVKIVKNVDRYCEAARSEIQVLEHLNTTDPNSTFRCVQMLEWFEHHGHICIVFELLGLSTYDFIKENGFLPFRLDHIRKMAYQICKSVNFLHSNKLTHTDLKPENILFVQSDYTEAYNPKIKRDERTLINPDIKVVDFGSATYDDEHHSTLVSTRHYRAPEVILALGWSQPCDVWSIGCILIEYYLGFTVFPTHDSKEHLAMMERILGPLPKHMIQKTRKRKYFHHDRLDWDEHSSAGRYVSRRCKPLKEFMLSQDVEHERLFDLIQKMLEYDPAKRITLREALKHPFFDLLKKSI
UniProt Q9P289, sequence (Q9P289 whole entry, looked up): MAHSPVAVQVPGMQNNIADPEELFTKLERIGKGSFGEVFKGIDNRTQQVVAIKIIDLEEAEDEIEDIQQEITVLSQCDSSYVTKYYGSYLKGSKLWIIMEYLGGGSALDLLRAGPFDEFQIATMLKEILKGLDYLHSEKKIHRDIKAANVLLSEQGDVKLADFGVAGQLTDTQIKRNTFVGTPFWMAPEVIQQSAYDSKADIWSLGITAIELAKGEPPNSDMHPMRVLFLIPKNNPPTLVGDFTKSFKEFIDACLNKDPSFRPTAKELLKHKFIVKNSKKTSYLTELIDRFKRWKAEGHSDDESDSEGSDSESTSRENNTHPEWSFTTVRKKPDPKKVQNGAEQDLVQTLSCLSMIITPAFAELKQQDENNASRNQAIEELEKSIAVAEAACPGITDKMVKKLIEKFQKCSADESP

pIC50 [1]: < 4.52
pIC50 [2]: < 4.52
pIC50 [3]: < 4.52
pIC50 [4]: < 4.52
pIC50 [5]: < 4.52
pIC50 [6]: 5.245 ± 0.035
pIC50 [7]: 5.015 ± 0.021
pIC50 [8]: 5.13
pIC50 [9]: < 4.52
pIC50 [10]: < 4.52
pIC50 [11]: < 4.52
pIC50 [12]: < 4.52
pIC50 [13]: < 4.52
Compound: CCc1cnn2c(NCc3ccc[n+]([O-])c3)cc(N3CCCC[C@H]3CCO)nc12 [dinaciclib]

From the supplement of paper PMC12076712
